Laboratory results taken from patent US12123048B2, “Fluorinated 4′-alkylumbelliferyl a-D-glucopyranosides, biological sterilization indicators including the same and methods of using the same” (3M INNOVATIVE PROPERTIES COMPANY, priority 2018, dated 2024).

Test system: Geobacillus stearothermophilus spores (ATCC 7953)
Assay: Fluorescence measurements using enzyme substrates and Geobacillus stearothermophilus spores in LB broth
Type: cell-based
Details: substrate 0.3 mg/mL, 5×10^6 spores, 60° C.
Method: Luria-Bertani (LB) broth was prepared by dissolving tryptone (10 g/L), yeast extract (5 g/L), and NaCl (5 g/L) in deionized water. In the examples, 6′-fluoro-4′-methylumbelliferyl α-D-glucopyranoside (0.3 mg/mL) or 5′-fluoro-4′-methylumbelliferyl α-D-glucopyranoside (0.3 mg/mL) was added to the broth. In the comparative examples, 4′-methylumbelliferyl α-D-glucopyranoside (MUG) (0.3 mg/mL) or 6′,8′-Difluoro-4′-methylumbelliferyl α-D-glucopyranoside (0.3 mg/mL) was added to the broth. The pH of the broth was adjusted to either pH 6, pH 7, pH 8, or pH 9 using 0.1 N hydrochloric acid or 1N sodium hydroxide solutions. The broth was passed through a 0.22 micron filter prior to use.
LB broth (pH 6) containing 6′-fluoro-4′-methylumbelliferyl α-D-glucopyranoside (0.3 mg/mL) (enzyme substrate of Example 1) was added to two wells (100 microliters per well) of a black 96-well microtiter plate with optically clear, flat bottom wells (NUNC #165301, Thermo Fisher Scientific, Waltham, MA). A 5 microliter aqueous suspension containing 5×10^6 Geobacillus stearothermophilus spores (ATCC 7953) was added to each well of the microtiter plate. Next, the contents of each well were mixed using a multiple aspiration/delivery sequence with the pipet. […] The top of the plate was covered with an optically clear sealing film (product #4311971, Applied Biosystems Corporation, Foster City, CA). The plate was warmed at 60° C. and shaken in a linear direction. Fluorescence readings (360 nm excitation/450 nm emission at 50% gain) were taken from the bottom of the plate. A reading was taken at an initial time point of 10 seconds and then at +1 minute intervals thereafter. A Synergy Neo2 fluorescence plate reader (BioTek Company, Winooski, VT) was used. In Table 1, the mean fluorescence values detected (RFU) at times of 10 seconds, +5 minutes, +10 minutes, and +30 minutes are reported. The mean fluorescence values detected for the control wells were 978 RFU at 10 seconds; 920 RFU at +5 minutes; 870 RFU at +10 minutes, and 746 RFU at +30 minutes.
The procedure of Example 3 was followed, with the exception that the LB broth (pH 6) containing 6′-fluoro-4′-methylumbelliferyl α-D-glucopyranoside (0.3 mg/mL) was replaced with LB broth (pH 6) containing 5′-fluoro-4′-methylumbelliferyl-α-D-glucopyranoside (0.3 mg/mL) (enzyme substrate of Example 2). In Table 1, the mean fluorescence values detected (RFU) at times of 10 seconds, +5 minutes, +10 minutes, and +30 minutes are reported. The mean fluorescence values detected for the control wells were 828 RFU at 10 seconds; 784 RFU at +5 minutes; 738 RFU at +10 minutes, and 622 RFU at +30 minutes.
The procedure of Example 3 was followed, with the exception that the LB broth (pH 6) containing 6′-fluoro-4′-methylumbelliferyl α-D-glucopyranoside (0.3 mg/mL) was replaced with LB broth (pH 6) containing 4-methylumbelliferyl α-D-glucopyranoside (0.3 mg/mL) (MUG). In Table 1, the mean fluorescence values detected (RFU) at times of 10 seconds, +5 minutes, +10 minutes, and +30 minutes are reported. The mean fluorescence values detected for the control wells were 868 RFU at 10 seconds; 802 RFU at +5 minutes; 756 RFU at +10 minutes, and 656 RFU at +30 minutes.
The procedure of Example 3 was followed, with the exception that the LB broth (pH 6) containing 6′-fluoro-4′-methylumbelliferyl α-D-glucopyranoside (0.3 mg/mL) was replaced with LB broth (pH 6) containing 6′,8′-difluoro-4′-methylumbelliferyl α-D-glucopyranoside (0.3 mg/mL) (enzyme substrate of Comparative Example A). In Table 1, the mean fluorescence values detected (RFU) at times of 10 seconds, +5 minutes, +10 minutes, and +30 minutes are reported. The mean fluorescence values detected for the control wells were 1,768 RFU at 10 seconds; 1,750 RFU at +5 minutes; 1,743 RFU at +10 minutes, and 1,805 RFU at +30 minutes. […]

[1] = pH 6 LB broth, 360 nm excitation/450 nm emission

Row | Compound | MEASURED FLUORESCENCE, RFU 10 sec [1] [RFU] | MEASURED FLUORESCENCE, RFU +5 min (pH 6 LB broth) [RFU] | MEASURED FLUORESCENCE, RFU +10 min (pH 6 LB broth) [RFU] | MEASURED FLUORESCENCE, RFU +30 min (pH 6 LB broth) [RFU] | MEASURED FLUORESCENCE, RFU 10 sec (pH 7 LB broth) [RFU] | MEASURED FLUORESCENCE, RFU +5 min (pH 7 LB broth) [RFU] | MEASURED FLUORESCENCE, RFU +10 min (pH 7 LB broth) [RFU] | MEASURED FLUORESCENCE, RFU +30 min (pH 7 LB broth) [RFU] | MEASURED FLUORESCENCE, RFU 10 sec (pH 8 LB broth) [RFU] | MEASURED FLUORESCENCE, RFU +5 min (pH 8 LB broth) [RFU] | MEASURED FLUORESCENCE, RFU +10 min (pH 8 LB broth) [RFU] | MEASURED FLUORESCENCE, RFU +30 min (pH 8 LB broth) [RFU] | MEASURED FLUORESCENCE, RFU 10 sec (pH 9 LB broth) [RFU] | MEASURED FLUORESCENCE, RFU +5 min (pH 9 LB broth) [RFU] | MEASURED FLUORESCENCE, RFU +10 min (pH 9 LB broth) [RFU] | MEASURED FLUORESCENCE, RFU +30 min (pH 9 LB broth) [RFU]
1 | Cc1cc(=O)oc2c(F)c(O[C@H]3O[C@H](CO)[C@@H](O)[C@H](O)[C@H]3O)c(F)cc12 [Comparative Example A, 6′,8′-Difluoro-4′-methylumbelliferyl α-D-glucopyranoside] | 29807 | 68823 | 85625 | >100000 | 32795 | 67118 | 89943 | >100000 | 20878 | 48312 | 77765 | >100000 | 4119 | 12620 | 31290 | 77404
2 | Cc1cc(=O)oc2cc(O[C@H]3O[C@H](CO)[C@@H](O)[C@H](O)[C@H]3O)c(F)cc12 [Example 1, 6′-Fluoro-4′-methylumbelliferyl α-D-glucopyranoside] | 11764 | 30536 | 51188 | 82334 | 24718 | 54317 | 79851 | >100000 | 11298 | 32225 | 61862 | >100000 | 2823 | 8863 | 22809 | 77125
3 | Cc1cc(=O)oc2cc(O[C@H]3O[C@H](CO)[C@@H](O)[C@H](O)[C@H]3O)cc(F)c12 [Example 2, 5′-Fluoro-4′-methylumbelliferyl α-D-glucopyranoside] | 1663 | 3559 | 7048 | 20550 | 5842 | 15059 | 28596 | 58390 | 3928 | 11692 | 26273 | 66491 | 1116 | 3002 | 7983 | 43732
4 | Cc1cc(=O)oc2cc(O[C@H]3O[C@H](CO)[C@@H](O)[C@H](O)[C@H]3O)ccc12 [MUG, 4′-methylumbelliferyl-α-D-glucopyranoside] | 1590 | 3100 | 5607 | 15915 | 3298 | 7944 | 15511 | 41643 | 3450 | 9572 | 21171 | 64484 | 1193 | 3444 | 9258 | 48874
